The results in this text go back to patent US11566007B2, “Ras inhibitors” (Revolution Medicines, Inc., priority 2019, dated 2023).

In experiment [1] the test system is NCI-H358 cells (K-Ras G12C). The experiment can be described thus: Potency assay: pERK in NCI-H358 cells. The class given is cell-based, human. The procedure: The purpose of this assay is to measure the ability of test compounds to inhibit K-Ras in cells. […] This procedure measures a decrease in cellular pERK in response to test compounds.
NCI-H358 cells were grown and maintained using media and procedures recommended by the ATCC. On the day prior to compound addition, cells were plated in 384-well cell culture plates (40 μl/well) and grown overnight in a 37° C., 5% CO2 incubator. Test compounds were prepared in 10, 3-fold dilutions in DMSO, with a high concentration of 10 mM. On the day of assay, 40 nL of test compound was added to each well of cell culture plate using an Echo550 liquid handler (LabCyte®). Concentrations of test compound were tested in duplicate. After compound addition, cells were incubated 4 hours at 37° C., 5% CO2. Following incubation, culture medium was removed and cells were washed once with phosphate buffered saline.
In some experiments, cellular pERK level was determined using the AlphaLISA SureFire Ultra p-ERK1/2 Assay Kit (PerkinElmer). Cells were lysed in 25 μL lysis buffer, with shaking at 600 RPM at room temperature. […] After a 2-hour incubation in the dark, 5 μL donor mix was added, plate was sealed, and incubated 2 hours at room temperature. Signal was read on an Envision plate reader (PerkinElmer) using standard AlphaLISA settings. Analysis of raw data was carried out in Excel (Microsoft) and Prism (GraphPad). Signal was plotted vs. the decadal logarithm of compound concentration, and IC50 was determined by fitting a 4-parameter sigmoidal concentration response model.
In other experiments, cellular pERK was determined by In-Cell Western. […] Fixed cells were washed 4 times for 5 minutes with TBS containing 0.1% Triton X-100 (TBST) and then blocked with 100 μL Odyssey blocking buffer (LI-COR) for 60 minutes at room temperature. […] Cells were washed 4 times for 5 minutes with TBST. Secondary antibody (IR-800CW rabbit, LI-COR, diluted 1:800) and DNA stain DRAQS (LI-COR, diluted 1:2000) were added and incubated 1-2 hours at room temperature. Cells were washed 4 times for 5 minutes with TBST. Plates were scanned on a Li-COR Odyssey CLx Imager. Analysis of raw data was carried out in Excel (Microsoft) and Prism (Graph Pad). Signal was plotted vs. the decadal logarithm of compound concentration, and IC50 was determined by fitting a 4-parameter sigmoidal concentration response model.

For a further experiment, the system named is NCI-H358 (K-Ras G12C). Put plainly: CellTiter-Glo cell viability assay, NCI-H358. The class given is cell-based, human. The note with it: NCI-H358, 5-day treatment, class symbols, read-out: Additional H358 Cell Viability assay data (K-Ras G12C, IC50). The procedure:
Note—The following protocol describes a procedure for monitoring cell viability of K-Ras mutant cancer cell lines in response to a compound of the invention. Other RAS isoforms may be employed, though the number of cells to be seeded will vary based on cell line used.
Test compounds (132.5 nL) were directly dispensed into the assay plates containing cells. […] On day 5, assay plates and their contents were equilibrated to room temperature for approximately 30 minutes. […] Luminescence was measured using the PerkinElmer Enspire. Data were normalized by the following: (Sample signal/Avg. DMSO)*100. The data were fit using a four-parameter logistic fit.
For orientation: In ATP-based viability assays light output follows the ATP content of the culture.

Another experiment addresses KRAS G12S (Homo sapiens (Human), UniProt P01116+P62937, G12S). The experiment can be described thus: Ras-Raf (BRAF RBD) disruption / FRET / MOA assay, KRAS G12S. The class given is biochemical. The note with it: Ras-Raf disruption/FRET/MOA assay; class symbols; read-out: KRAS G12S FRET data IC50. Here is the method:
(§1) The purpose of this biochemical assay is to measure the ability of test compounds to facilitate ternary complex formation between a nucleotide-loaded Ras isoform and cyclophilin A; the resulting ternary complex disrupts binding to a BRAF^RBD construct, inhibiting Ras signaling through a RAF effector.
(§2) Compound is present in plate wells as a 10-point 3-fold dilution series starting at a final concentration of 30 μM. After incubation at 25° C. for 3 hours, a mixture of Anti-His Eu-W1024 and anti-GST allophycocyanin is then added to assay sample wells at final concentrations of 10 nM and 50 nM, respectively, and the reaction incubated for an additional 1.5 hours. […] Compounds that facilitate disruption of a Ras:RAF complex are identified as those eliciting a decrease in the TR-FRET ratio relative to DMSO control wells.
(§3) This protocol may also be executed substituting other Ras proteins or nucleotides.
(§4) The purpose of this biochemical assay was to measure the ability of test compounds to facilitate ternary complex formation between a nucleotide-loaded K-Ras isoform and Cyclophilin A; the resulting ternary complex disrupts binding to a BRAF^RBD construct, inhibiting K-Ras signaling through a RAF effector. Data is reported as IC50 values.
(§5) Compound was present in plate wells as a 10-point 3-fold dilution series starting at a final concentration of 30 μM. After incubation at 25° C. for 3 hours, a mixture of Anti-His Eu-W1024 and anti-GST allophycocyanin was then added to assay sample wells at final concentrations of 10 nM and 50 nM, respectively, and the reaction incubated for an additional 1.5 hours. […] Compounds that facilitate disruption of a K-Ras:RAF complex were identified as those eliciting a decrease in the TR-FRET ratio relative to DMSO control wells.

Another experiment addresses KRAS G12D (Homo sapiens (Human), UniProt P01116+P62937, G12D). Put plainly: Ras-Raf (BRAF RBD) disruption / FRET / MOA assay, KRAS G12D. It is filed as biochemical. The note with it: Ras-Raf disruption/FRET/MOA assay; class symbols; read-out: KRAS G12D FRET data IC50. Here is the method: as §1, §2, §3, §4, §5
The mark [2] stands for this setting: Homo sapiens, NCI-H358, H358 KRAS G12C, read-out: pERK EC50.
[3] abbreviates: H358 KRAS G12C, read-out: pERK EC50.

pEC50, pIC50: −log10 of the molar value. Like-named read-outs stand apart in the source and are kept apart here.

Sequence of KRAS G12S (P01116-2 other isoform, or with tags, fused parts or gaps G12S): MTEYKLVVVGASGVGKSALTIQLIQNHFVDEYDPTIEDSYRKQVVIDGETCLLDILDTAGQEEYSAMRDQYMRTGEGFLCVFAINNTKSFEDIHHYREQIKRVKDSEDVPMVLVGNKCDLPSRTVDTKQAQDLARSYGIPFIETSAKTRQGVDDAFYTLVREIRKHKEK
Sequence of KRAS G12S (P62937 whole entry, canonical isoform): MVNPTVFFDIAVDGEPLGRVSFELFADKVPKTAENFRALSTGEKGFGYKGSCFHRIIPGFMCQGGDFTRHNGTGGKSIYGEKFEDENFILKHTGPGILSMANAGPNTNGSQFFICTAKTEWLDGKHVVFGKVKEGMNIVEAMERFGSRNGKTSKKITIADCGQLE
Sequence of KRAS G12D (P01116-2 other isoform, or with tags, fused parts or gaps G12D): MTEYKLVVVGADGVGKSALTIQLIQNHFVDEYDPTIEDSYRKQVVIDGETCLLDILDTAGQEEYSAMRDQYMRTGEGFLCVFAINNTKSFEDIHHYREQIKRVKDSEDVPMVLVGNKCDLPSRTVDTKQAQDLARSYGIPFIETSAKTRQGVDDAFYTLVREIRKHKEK
Sequence of KRAS G12D (P62937 whole entry): as the sequence (P62937 whole entry, canonical isoform) above

With `CCn1c(-c2ccccc2COC)c2c3cc(ccc31)-c1cc(O)cc(c1)C[C@H](NC(=O)[C@H](C(C)C)N(C)C(=O)[C@H]1CCN(C(=O)/C=C/CN(C)C)C1)C(=O)N1CCC[C@H](N1)C(=O)OCC(C)(C)C2` [Example A79], in experiment [1] (setting [2]), the pEC50 (as a rule, the EC50 on a negative log10 scale, so that one unit is a factor of ten) is more than 5.30. The pIC50 (usually the negative decadic logarithm of the IC50, by convention in mol/L) in the experiment with NCI-H358 (K-Ras G12C) (Homo sapiens, NCI-H358, 120 h) was 7.00 to 8.00.

For the compound `C=CC(=O)N1CC[C@H](C(=O)N(C)[C@H](C(=O)N[C@H]2Cc3cc(O)cc(c3)-c3ccc4c(c3)c(c(-c3ccncc3CCOC)n4CC)CC(C)(C)COC(=O)[C@@H]3CCCN(N3)C2=O)C(C)C)C1` [Example A48], in experiment [1] (setting [2]), the pEC50 was more than 5.30.

As for `C=CC(=O)N1CC[C@H](C(=O)N(C)[C@H](C(=O)N[C@H]2Cc3cc(O)cc(c3)-c3ccc4c(c3)c(c(-c3ccccc3CCOC)n4C(C)(C)C#N)CC(C)(C)COC(=O)[C@@H]3CCCN(N3)C2=O)C(C)C)C1` [Example A34], in experiment [1] (setting [3]), the negative-log EC50 (pEC50) is more than 5.30.

Turning to `C=CC(=O)N1CC[C@H](C(=O)N(C)[C@H](C(=O)NC2C[C@@H]3CN(CCO3)c3ccc4c(c3)c(c(-c3cccnc3COC)n4CC)CC(C)(C)COC(=O)[C@@H]3CCCN(N3)C2=O)C(C)C)C1` (stereo partly drawn) [Example A318], the pIC50 with NCI-H358 (K-Ras G12C) was less than 6.00; at KRAS G12S it was less than 5.00; at KRAS G12D, less than 5.00.

Regarding `C=CC(=O)N1CC[C@H](C(=O)N(C)[C@H](C(=O)N[C@H]2Cc3cc(O)cc(c3)-c3ccc4c(c3)c(c(-c3cnccc3[C@H](C)OC)n4CC)CC(C)(C)COC(=O)[C@@H]3CCCN(N3)C2=O)C(C)C)C1` [Example A76], the pEC50 in experiment [1] (setting [3]) was more than 5.30.

With `CCn1c(-c2ccccc2CN(C)C)c2c3cc(ccc31)-c1cc(O)cc(c1)C[C@H](NC(=O)[C@H](C(C)C)N(C)C(=O)c1nc(NC(=O)/C=C/CN(C)C)cs1)C(=O)N1CCC[C@H](N1)C(=O)OCC(C)(C)C2` [Example A90], in the experiment with NCI-H358 (K-Ras G12C) (Homo sapiens, NCI-H358, 120 h), the pIC50 is less than 6.00.

With `CCn1c(-c2ccccc2CN(C)C)c2c3cc(ccc31)-c1cc(O)cc(c1)C[C@H](NC(=O)[C@H](C(C)C)N(C)C(=O)c1ccc(NC(=O)/C=C/CN(C)C)cc1)C(=O)N1CCC[C@H](N1)C(=O)OCC(C)(C)C2` [Example A49], in the experiment with NCI-H358 (K-Ras G12C) (Homo sapiens, NCI-H358, 120 h), the pIC50 is less than 6.00.

Take `CCn1c(-c2cnccc2COC)c2c3cc(ccc31)-c1cc(O)cc(c1)C[C@H](NC(=O)[C@H](C(C)C)N(C)C(=O)[C@H]1CCN(C(=O)C#CCN(C)C)C1)C(=O)N1CCC[C@H](N1)C(=O)OCC(C)(C)C2` [Example A88]: the pEC50 in experiment [1] (setting [2]) is more than 5.30.

As to `C=CC(=O)N1CC[C@H](C(=O)N(C)[C@H](C(=O)N[C@H]2Cc3cc(O)cc(c3)-c3ccc4c(c3)c(c(-c3cncc(CCN(C)C)c3)n4CC)CC(C)(C)COC(=O)[C@@H]3CCCN(N3)C2=O)C(C)C)C1` [Example A81], in experiment [1] (setting [2]), the pEC50 is more than 5.30.

Turning to `CC#CC(=O)N1CC[C@H](C(=O)N(C)[C@@H](C(=O)N[C@H]2Cc3cc(O)cc(c3)-c3ccc4c(c3)c(c(-c3cccnc3[C@H](C)OC)n4CC)CC(C)(C)COC(=O)[C@@H]3CCCN(N3)C2=O)C(C)C)C1` (atropisomer, axis not shown) [Example A198], in the experiment on NCI-H358 (K-Ras G12C), the pIC50 is less than 6.00.

For `C=CC(=O)N1CC[C@H](C(=O)N(C)[C@H](C(=O)N[C@H]2Cc3cc(O)cc(c3)-c3ccc4c(c3)c(c(-c3ccccc3CCOC)n4C(C)(C)C#N)CC(C)(C)COC(=O)[C@@H]3CCCN(N3)C2=O)C(C)C)C1` [Example A12], the negative logarithm of the EC50 (pEC50) in experiment [1] (setting [2]) was more than 5.30.

For the compound `C=CC(=O)N1CC[C@H](C(=O)N(C)[C@H](C(=O)N[C@H]2Cc3cc(OC(=O)N(C)CC(=O)O)cc(c3)-c3ccc4c(c3)c(c(-c3ccccc3CCOC)n4CC)CC(C)(C)COC(=O)[C@@H]3CCCN(N3)C2=O)C(C)C)C1` [Example A78], in experiment [1] (Homo sapiens, NCI-H358, read-out: pERK EC50), the pEC50 was more than 5.30.

In the case of `C=CC(=O)N1CCN(C(=O)N(C)[C@H](C(=O)N[C@H]2Cc3cc(O)cc(c3)-c3ccc4c(c3)c(c(-c3ccccc3CN(C)C)n4CC)CC(C)(C)COC(=O)[C@@H]3CCCN(N3)C2=O)C(C)C)CC1` [Example A37], in experiment [1] (setting [2]), the pEC50 was more than 5.30.

For `CCn1c(-c2cccnc2COC)c2c3cc(ccc31)-c1cc(O)cc(c1)C[C@H](NC(=O)[C@H](C(C)C)N(C)C(=O)[C@H]1CCN(C(=O)/C=C/CN3CCN(C)CC3)C1)C(=O)N1CCC[C@H](N1)C(=O)OCC(C)(C)C2` [Example A72], the negative-log IC50 (pIC50) with NCI-H358 (K-Ras G12C) (Homo sapiens, NCI-H358, 120 h) was less than 6.00.

As for `C=CC(=O)N1CC[C@H](C(=O)N(C)[C@H](C(=O)N[C@H]2Cc3cc(OC(=O)CCC(=O)O)cc(c3)-c3ccc4c(c3)c(c(-c3ccccc3CCOC)n4CC)CC(C)(C)COC(=O)[C@@H]3CCCN(N3)C2=O)C(C)C)C1` [Example A32], the pEC50 in experiment [1] (setting [2]) was more than 5.30.

With `C=CC(=O)N1CC[C@H](C(=O)N(C)[C@H](C(=O)N[C@H]2Cc3cc(O)cc(c3)-c3ccc4c(c3)c(c(-c3cccnc3)n4C(C)(C)C#N)CC(C)(C)COC(=O)[C@@H]3CCCN(N3)C2=O)C(C)C)C1` [Example A74], in experiment [1] (setting [3]), the negative logarithm of the EC50 (pEC50) was more than 5.30.

In the case of `CCn1c(-c2ccccc2CCOC)c2c3cc(ccc31)-c1cc(O)cc(c1)C[C@H](NC(=O)[C@H](C(C)C)N(C)C(=O)[C@H]1CCN(C(=O)/C=C/CN(C)C)C1)C(=O)N1CCC[C@H](N1)C(=O)OCC(C)(C)C2` [Example A15], the pEC50 in experiment [1] (setting [2]) is more than 5.30.

Consider `C=CC(=O)N1CC[C@H](C(=O)N(C)[C@H](C(=O)N[C@H]2Cc3cc(O)cc(c3)-c3ccc4c(c3)c(c(-c3ccccc3CO)n4CC)CC(C)(C)COC(=O)[C@@H]3CCCN(N3)C2=O)C(C)C)C1` [Example A4], for which the pEC50 in experiment [1] (setting [2]) was more than 5.30.

In the case of `C=CC(=O)N1CC[C@H](C(=O)N(C)[C@H](C(=O)N[C@H]2Cc3cc(O)cc(c3)-c3ccc4c(c3)c(c(C3=C(COC)COCC3)n4CC)CC(C)(C)COC(=O)[C@@H]3CCCN(N3)C2=O)C(C)C)C1` [Example A058], the values for the negative-log IC50 (pIC50) at KRAS G12S and at KRAS G12D were 6.00 to 7.00 and 5.00 to 6.00, respectively.

Consider `CC#CC(=O)N1CC[C@H](C(=O)N(C)[C@H](C(=O)N[C@H]2Cc3cc(O)cc(c3)-c3ccc4c(c3)c(c(-c3cccnc3[C@H](C)OC)n4CC)CC(C)(C)COC(=O)[C@@H]3CCCN(N3)C2=O)C(C)C)C1` (atropisomer, axis not shown; (M)) [Example A145, (2S)-2-{1-[(3S)-1-(but-2-ynoyl)pyrrolidin-3-yl]-N-methylformamido}-N-[(8S,14S,20M)-22-ethyl-4-hydroxy-21-{2-[(1S)-1-methoxyethyl]pyridin-3-yl}-18,18-dimethyl-9,15-dioxo-16-oxa-10,22,28-triazapentacyclo[18.5.2.1^2,^6.1^10,^14.0^23,^27]nonacosa-1(26),2,4,6(29),20,23(27),24-heptaen-8-yl]-3-methylbutanamide], for which the pEC50 in experiment [1] (setting [3]) was more than 5.30.
